The values that follow come from US10744173B2, “Traditional Chinese medicine compositions for alleviating stress” (Infinitus (China) Company Ltd., priority 2017, dated 2020).

What all share (type): in vivo
Assay [1] deals with corticotropin-releasing hormone (CRH). Nature of the assay: Neurotransmitter measurement by ELISA: CRH. As to conditions: trunk blood. Here is the method:
(§1) The rats were housed in individual cages with light and temperature control (temperature: 21±2° C.; lights on at 8:00 AM and off at 8:00 PM). Food and water were available ad libitum. All experimental procedures were carried out in strict accordance with the National Institutes of Health guidelines for care and use of experimental animals. After an initial habituation period of 1 week, all animals were given access to bottle containing a sucrose solution in tap water for 1 hour and were tested for the baseline data of the sucrose preference test. According to the baseline data, the animals were divided into 9 groups (n=10-12 animals/each group), that is the control group, the stressed group, the stressed+fluoxetine group, the stressed+Example 1 group, the stressed+ginseng extract group, the stressed+Radix paeoniae Alba extract group, the stressed+Tree Peony Bark extract group, the stressed+Sharpleaf Galangal Fruit extract group, and the stressed+Radix Polygonum multiflorum Preparata extract group. The animals were subjected to 2 to 5 different mild stressors per day for 5 weeks. The mild stressors included water and food deprivation, cage tilt, continuously lighting, cage soiling, stroboscopic lighting, restricted access to food, and tail pinching. Control animals were not subjected to the stress protocol, and the stressed animals were subjected to the mild stressors and given the same amount of water as control group. The animals of the stressed+fluoxetine group were subjected to the mild stressors and treated with fluoxetine capsules. The animals of the stressed+Example 1 group were subjected to the mild stressors and treated with the composition of Example 1. The animals of the stressed+single extract group were subjected to the mild stressors and treated with the single extract.
(§2) The rats were sacrificed and the trunk blood was collected into the collection tubes coated with standard heparin. […] The levels of corticotropin-releasing hormone (CRH), adrenocorticotropic hormone (ACTH) and cortisol (CORT) were detected by ELISA. […]

In assay [2] the test system is chronically stressed rats. Nature of the assay: Sucrose preference test in chronically stressed rats. Here is the method: as §1
The rats could select between two bottles of liquid freely, one with 0.8% sucrose solution and one with tap water, after 23 h food and water deprivation. To avoid the rats prefer to drink one side of the water, the position of the two bottles were exchanged every half an hour. Tap water consumption and sucrose consumption were measured by weighting the bottles, and the sucrose preference were calculated based on the following formula: […]
The rats were housed in individual cages with light and temperature control (temperature: 21±2° C.; lights on at 8:00 AM and off at 8:00 PM). Food and water were available ad libitum. All experimental procedures were carried out in strict accordance with the National Institutes of Health guidelines for care and use of experimental animals. After an initial habituation period of 1 week, all animals were given access to bottle containing a sucrose solution in tap water for 1 hour and were tested for the baseline data of the sucrose preference test. […]

Assay [3] concerns adrenocorticotropic hormone (ACTH). Nature of the assay: Neurotransmitter measurement by ELISA: ACTH. As to conditions: trunk blood. As to the method: as §1, §2
On the technique in general: ELISA stands for enzyme-linked immunosorbent assay.

Assay [4] deals with cortisol (CORT). Nature of the assay: Neurotransmitter measurement by ELISA: CORT. The following applies: trunk blood. Here is the method:
as §1, §2

For assay [5], the system named is CRH, ACTH and CORT. Nature of the assay: Neurotransmitter measurement, overall statement on CRH, ACTH and CORT. As to conditions: chronically stressed rats. As to the method:
The rats were housed in individual cages with light and temperature control (temperature: 21±2° C.; lights on at 8:00 AM and off at 8:00 PM). Food and water were available ad libitum. All experimental procedures were carried out in strict accordance with the National Institutes of Health guidelines for care and use of experimental animals. After an initial habituation period of 1 week, all animals were given access to bottle containing a sucrose solution in tap water for 1 hour and were tested for the baseline data of the sucrose preference test. According to the baseline data, the animals were divided into 9 groups (n=10-12 animals/each group), that is the control group, the stressed group, the stressed+fluoxetine group, the stressed+Example 1 group, the stressed+ginseng extract group, the stressed+Radix paeoniae Alba extract group, the stressed+Tree Peony Bark extract group, the stressed+Sharpleaf Galangal Fruit extract group, and the stressed+Radix Polygonum multiflorum Preparata extract group. The animals were subjected to 2 to 5 different mild stressors per day for 5 weeks. […]
as §2

Where [6] appears, read: Comparative study (Comparative Examples 1-7), chronically stressed rats.
[7] abbreviates: Experimental Example 1, chronically stressed rats.
The mark [8] stands for this setting: Experimental Example 2, chronically stressed rats.

On to `CNCCC(Oc1ccc(C(F)(F)F)cc1)c1ccccc1` (centres unmarked) [fluoxetine], for which the CRH in assay [1] (setting [6]) worked out at 5.11 ± 0.29 ng/mL; in assay [1] (setting [7]) it was 5.13 ± 0.25 ng/mL; in assay [1] (setting [8]), 5.13 ± 0.25 ng/mL. The “Sucrose Preference” value in assay [2] (Comparative study (Comparative Example 1-7), mild stressors for 5 weeks, 0.8% sucrose vs tap water) turned out to be 0.7502 ± 0.0471; in assay [2] (Experimental Example 2, mild stressors for 5 weeks, 0.8% sucrose vs tap water), 0.7431 ± 0.0565. Moreover, in assay [2] (Experimental Example 1, mild stressors for 5 weeks, 0.8% sucrose vs tap water), the “Sucrose Preferenc” value is reported as 0.7431 ± 0.0565. Besides, the “Change of sucrose preference compared with the stressed group (in words)” value in assay [2] (compared with the stressed group) was “significantly increase the sucrose preference”. Besides, the ACTH in assay [3] (setting [6]) was 32.73 ± 2.66 pg/mL; in assay [3] (setting [7]), 33.83 ± 2.26 pg/mL; in assay [3] (setting [8]), 33.83 ± 2.26 pg/mL. The CORT was determined as 52.46 ± 6.05 ng/mL in assay [4] (setting [6]), 52.09 ± 5.95 ng/mL in assay [4] (setting [7]) and 52.09 ± 5.95 ng/mL in assay [4] (setting [8]). Also, in assay [5], the “Effect on the abnormal levels of CRH, ACTH and CORT caused by chronic stress (in words)” value was “improve the abnormal levels of CRH, ACTH and CORT”.
